As usually defined, the MIC50 is the lowest concentration that inhibits either 50% of growth or 50% of the strains tested, depending on the study.

We go through two substances from PMC8160934, “Different Biological Activities of Histidine-Rich Peptides Are Favored by Variations in Their Design” (Toxins, 2021).

Entries after “also recorded” stand apart in the source; their conditions may differ.

In data set [1] the test system is VSV and GALVTR pseudotyped lentiviruses. The conditions noted are these: cited from earlier work.
The conditions of data set [2]: in the transfection and other phosphate-containing buffers; cited from earlier work.
For data set [3], the system named is E. coli bacteria (ATCC 25922). Nature of the data set: Broth microdilution antibacterial assay (MIC) in Mueller–Hinton broth, pH 5. The data set is classed as cell-based. Conditions: E. coli, Mueller–Hinton broth pH 5; x50 from Origin fits of the growth curves of Figure 3 (concentration range 100 µM to 0.52 µM); fit error given; * error estimated in the range of the 1.5-fold dilution steps. As for the experimental part: Therefore, the antibacterial properties of both series of peptides were analyzed in Mueller–Hinton (MH) broth at pH 5 by determining the minimal inhibitory concentrations (MICs).
Figure 3 Bacterial growth as a function of peptide concentration for the LAH4-Ln (A) and the LAH4-An series (B). The average of two experimental data sets (each data point derived from triplicates under the same experiment conditions) covering the concentration range 100 µM to 0.52 µM are shown by the relative bacterial growth when compared to bacteria in the absence of peptide (=100%). To guide the eye, the data have been fitted with the function ymin + (ymax − ymin)/(1 + (x/xo)^p)^s using the OriginPro software. […] The assay was performed in Mueller–Hinton broth, pH 5.
A broth microdilution assay was used to determine the minimal inhibitory concentration (MIC). A peptide aliquot of 1 mg was first solubilized in 50% ethanol (10 mM) then diluted in H2O to get a 300 μM peptide stock solution.
For all the activity tests, E. coli bacteria (ATCC® 25922^TM, Thermo Fisher Scientific, Courtaboeuf, France) were used. Briefly, some colonies from E. coli spread on gelose were resuspended in Mueller–Hinton broth, pH 7.4. After incubation at 37 °C for about 6 h this preculture was diluted to OD550nm = 0.2 in MH at pH5 and allowed to grow to reach the exponential phase (OD550nm = 1–2). After two-step dilution in MH pH5, the working bacteria suspension corresponding to 1.10^5–2.10^5 colony-forming units (CFU)/mL was obtained.
The antimicrobial testing was carried out in 96-well microplates (sterile polystyrene untreated with F-bottom, Thermo Scientific Nunc A/S, Roskilde, Denmark). The first column of the plate contains the highest final concentration (Cf) of peptide to test (two experiments were done: the first one starting at Cf 100 μM and a second one starting at 30 μM). All samples were added to the first column of the plate and subsequently spread onto the plate by a 1.5-fold dilution series in 10 steps. The last columns correspond to the positive and negative control conditions, respectively. Finally, the bacterial working suspension was distributed (50 μL at 1.10^5–2.10^5 CFU/mL in MH1X at pH 5) to each well except for the negative control (MH1X at pH5). The final volume was 100 μL/well and the range of peptide concentrations tested was from 100 μM to 1.73 μM for the first experiment and from 30 μM to 0.52 μM for the second experiment. The microplates were incubated at 37 °C for 12 h before bacterial growth was assessed by measuring the OD600. The initial bacterial density for each experiment was checked by spreading 100 μL of the working bacterial suspension, diluted 1/100 and 1/500 in MH1X, pH 5 on MH agar plates. After overnight incubation at 37 °C, the CFU were counted and the CFU/mL were determined. The percentage of bacterial growth compared to the positive control allows one to determine the MIC. The MIC values represent the average of the lowest tested peptide concentration (from both experiments) where most (at least 80%) of the bacterial growth is inhibited.

The next data set deals with HCT116 cells. The experiment in a line: Saporin delivery, MTS cell viability. The data set is classed as cell-based, human. The conditions noted are these: HCT116, 0.54 µg/triplicate non-complexed saporin, 2 h 30 min, MTS two days later; result in words. The method, then: Figure 2 Transduction of the plant toxin saporin. HCT116 cells plated in 96-well plates were treated with 0.54 µg/triplicate of saporin in the absence or presence of LAH4 peptides (LAH4-Ln series in (A) and LAH4-An series in (B)). […] Two days later, an MTS assay was performed. The cell viability efficiency is expressed relative to untreated cells (=100%). […] For each peptide 3 conditions were tested: 4.05, 5.4 and 8.1 µg of peptide/0.54 µg saporin. Untreated cells (=100%; purple bar) and non-complexed saporin (black bar) were used as the control. The hydrophilic angles are shown on top in italics. […] The cell viability values appear only as bars and are not printed, so none are given. […]
Cell metabolic activity was measured by using an MTS (3-(4,5-dimethylthiazol-2-yl)-5-(3-carboxymethoxyphenyl)-2-(4-sulfophenyl)-2H-tetrazolium) assay (CellTiter 96® AQ ueous One Solution Cell Proliferation Assay, Promega). […] Plates were read at 490 nm (reagent absorbance) and 680 nm (background) (SP200, Safas, Monaco). The results were expressed by the subtraction of background absorbance and the expression of viability relative to non-treated controls (considered as 100% viability).

On to “H-KKALLHAALAHLLALAHHLLALLKKA-NH2 [LAH4-A4, isomer of LAH4, LAH4-An series, also named Vectofusin-1]”, for which the lentiviral transduction enhancement entry in data set [1] is “highly efficient; also recorded: enhances the transduction”. Besides, the formation of fibers entry in data set [2] is on record as “formation of fibers”. In addition, the MIC50 in data set [3] is 6 µM.

With saporin, the “cell death induced by saporin alone” value in the data set with HCT116 cells is recorded as “low levels of cell death”.
